The text below walks through data of PMC9186351, “Discovery of N-quinazolinone-4-hydroxy-2-quinolone-3-carboxamides as DNA gyrase B-targeted antibacterial agents” (Journal of Enzyme Inhibition and Medicinal Chemistry, 2022).

Data set [1] has as its system vancomycin intermediate resistant S. aureus (VISA). Put plainly: MIC by broth microdilution, VISA strains. It is filed as cell-based. The conditions noted are these: Staphylococcus aureus, read-out: MIC. The procedure: All of the bacterial strains used in this study were obtained from the Collection Centre of Pathogen Microorganism of Chinese Academy of Medical Sciences (CAMS-CCPM-A) in China. All of the isolates were stored at −80 °C and streaked on tryptic soy agar (TSA) plates to obtain overnight cultures. The MICs of the test compounds were determined by the broth microdilution method in accordance with the Clinical and Laboratory Standards Institute (CLSI) guidelines.[20] Cation-adjusted Mueller-Hinton broth (CAMHB) was used as the growth medium for MIC assays. Briefly, 100 μL of serially diluted compounds (starting concentrations were 64 μg/mL) in CAMH broth were added to the wells of 96-well microtiter plates. Then, 10 µL of 5 × 10^6 CFU/mL bacterial culture was added to each well. […] The MIC was defined as the lowest concentration of a compound that inhibited visual growth of the bacteria. Vancomycin was set as the positive control for this assay.

The nature of data set [2]: Cytotoxicity, SRB assay, HepG2. Type of data set: cell-based, human. The conditions noted are these: human, HepG2 cells, 72-h treatment (footnote), read-out: In vitro cytotoxicity CC50 (μM, mean ± SD). The protocol:
(§1) Cytotoxicity in terms of CC50 was determined by the SRB assay according to the protocol described in our previous publication.[16] Briefly, human HUVECs or HepG2 cells were seeded in the wells of 96-well plates at a concentration of 1 × 10^5 cells per well and incubated at 37 °C for 24 h. […] The cells were fixed with 10% trichloroacetic acid (w/v) at 4 °C for 1 h, washed five times with distilled water, and stained with 0.4% SRB solution at room temperature for another 20 min. The cells were then washed five times with 1% acetic acid and air-dried. The protein-bound dye was dissolved in 10 mM Tris-base solution and shaken for 5 min. The optical density (OD) was measured at 540 nm using a microplate reader to estimate the cell viability (%). With the viability values (%) of the cells treated by the compound at different concentrations as input, the CC50 value was determined by the non-linear regression with normalised dose-response fit implemented in GraphPad Prism version 5 software (GraphPad Software Inc., La Jolla, CA). The experiment was performed in duplicate, and paclitaxel was used as the positive drug for this assay.
Background: The SRB assay estimates cell density from bound dye.

Data set [3] deals with HepG2 cells. Put plainly: Cytotoxicity, SRB assay, HepG2. It is filed as cell-based, human. The conditions noted are these: 72-h treatment (footnote), read-out: In vitro cytotoxicity CC50 (μM, mean ± SD). The protocol: as §1
Data set [4] can be described thus: in vitro. Particulars: mouse, plasma. Type of data set: in vitro ADME, mouse. The procedure:
The mouse plasma was purchased from Charles River and stored at −20 °C. The stock solution of the test compound dissolved in DMSO (50 mM) was prepared and diluted to obtain a working solution at the concentration of 0.2 mM. The working solution of the control compound, i.e. propantheline, was similarly prepared (0.2 mM). Terfenadine (5 ng/mL) and tolbutamide (10 ng/mL) dissolved in acetonitrile were used as two quenching solutions.
The mouse plasma was pre-warmed at 37 °C for 15 min. The working solution of the test/control compound (2 µL) was then added to the mouse plasma (398 µL) in a 96-well plate. Next, 30 µL of the reaction mixture was sampled and moved to 300 µL of quenching solutions at each time point: 0, 5, 15, 30, 60, and 120 min for the control compound and 0, 15, 30, 60, and 120 min for the test compound. When the sampling was done, each sample was centrifuged at 4000 rpm at 4 °C for 15 min. Then, 100 µL of the supernatant was removed and mixed with 100 µL of distilled water for LC-MS/MS analysis with Shimadzu HPLC system and the AB Sciex API 4000 QTRAP instrument. The remaining compound (%) after incubation in plasma versus the incubation time was plotted. The half-life (t1/2) value of the compound was determined via linear regression from the plot.

The structures appear in SMILES notation. Values after ≈ are worked out from the molar mass of the structure shown. Like-named read-outs stand apart in the source and are kept apart here.

In general, MIC refers to the lowest concentration found to suppress growth. The term CC50 denotes the concentration giving 50% cytotoxicity. The term half-life denotes the time needed for the level to fall by half in the phase considered. A high value points to slow decline.

In the case of `CCCCCc1nc2ccccc2c(=O)n1NC(=O)c1c(O)c2ccccc2n(CC)c1=O` [f1, N-(4-oxo-2-pentylquinazolin-3(4H)-yl)-1-ethyl-4-hydroxy-2-oxo-1,2-dihydroquinoline-3-carboxamide], the MIC in data set [1] (ATCC 700699 / VISA, VISA ATCC 700699) stood at 8 µg/mL (≈ 17.9 µM); in data set [1] (VISA, VISA HIP 5827), 4 µg/mL (≈ 8.96 µM); in data set [1] (VISA, VISA HIP 5836) it was 16 µg/mL (≈ 35.8 µM). The CC50 at 72 h in data set [2] is about 50 µM. Besides, the CC50 in data set [3] is 49.6 ± 0.2 µM. The half-life at 1 µM in data set [4] was over 6.21 h.
